{"source": "ChEMBL document CHEMBL1154245", "about": "“Parazoanthines A-E, hydantoin alkaloids from the Mediterranean sea anemone Parazoanthus axinellae” (J Nat Prod, 2009)", "key": {"[1]": {"system": "MDA-MB-231", "experiment": "Antitumor activity against human MDA-MB-231 cells", "type": "functional, cell-based"}, "[2]": {"system": "A549", "experiment": "Antitumor activity against human A549 cells", "type": "functional, cell-based"}, "[3]": {"system": "Plasmodium falciparum", "experiment": "Antimalarial activity against Plasmodium falciparum FcB1", "type": "functional, organism-based", "settings": "FcB1/Columbia"}, "[4]": {"system": "HT-29", "experiment": "Antitumor activity against human HT-29 cells", "type": "functional, cell-based"}, "[5]": {"experiment": "Toxicity against Ircinia variabilis"}, "[6]": {"experiment": "Toxicity against Dysidea avara"}}, "note": "Active and inactive are the calls of the source. The rule behind the calls is not given here.", "data": [{"smiles": "N=C(N)NCCC[C@@H]1NC(=O)N(/C=C/c2ccc(O)cc2)C1=O", "values": [{"measurement": "Activity", "setting": "[1]", "value": "inactive"}, {"measurement": "Activity", "setting": "[2]", "value": "inactive"}, {"measurement": "Activity", "setting": "[3]", "value": "inactive"}, {"measurement": "Activity", "setting": "[4]", "value": "inactive"}]}, {"smiles": "COc1ccc(/C=C/N2C(=O)N[C@@H](CCCNC(=N)N)C2=O)cc1Br", "values": [{"measurement": "Activity", "setting": "[1]", "value": "inactive"}, {"measurement": "Activity", "setting": "[2]", "value": "inactive"}, {"measurement": "Activity", "setting": "[3]", "value": "inactive"}, {"measurement": "Activity", "setting": "[4]", "value": "inactive"}]}, {"smiles": "COc1ccc(/C=C/N2C(=O)N/C(=C\\CCNC(=N)N)C2=O)cc1Br", "values": [{"measurement": "Activity", "setting": "[1]", "value": "inactive"}, {"measurement": "Activity", "setting": "[2]", "value": "inactive"}, {"measurement": "Activity", "setting": "[3]", "value": "inactive"}, {"measurement": "Activity", "setting": "[4]", "value": "inactive"}]}, {"smiles": "COc1ccc(/C=C/N2C(=O)N/C(=C\\CCNC(=N)N)C2=O)cc1", "note": "[PARAZOANTHINE C]", "values": [{"measurement": "Activity", "setting": "[1]", "value": "inactive"}, {"measurement": "Activity", "setting": "[2]", "value": "inactive"}, {"measurement": "Activity", "setting": "[3]", "value": "inactive"}, {"measurement": "EC50", "setting": "[5]", "value": 1640, "unit": "nM"}, {"measurement": "EC50", "setting": "[6]", "value": 1640, "unit": "nM"}, {"measurement": "Activity", "setting": "[4]", "value": "inactive"}]}, {"smiles": "N=C(N)NCC/C=C1\\NC(=O)N(/C=C/c2ccc(O)cc2)C1=O", "values": [{"measurement": "Activity", "setting": "[1]", "value": "inactive"}, {"measurement": "Activity", "setting": "[2]", "value": "inactive"}, {"measurement": "Activity", "setting": "[3]", "value": "inactive"}, {"measurement": "Activity", "setting": "[4]", "value": "inactive"}]}]}
